Source: patent US20110091472A1, “COMPOSITIONS FOR TREATING PSORIASIS” (Novartis Vaccines and Diagnostic, Inc., priority 1999, published 2011)

System: lesional psoriatic skin grafted onto SCID mice
Test: SCID mouse psoriatic skin graft model, methotrexate alone or in combination with low dose 5D12
Type: in vivo
Details: methotrexate 0.1 to 0.4 mg/kg increasing regimen in combination with the isotype control antibody
Protocol: This experiment was conducted, using the mouse model described in Example 1, to quantitate the anti-psoriatic effects of low doses of anti-CD40 antibody. The low-dose treatment with antibody 5D12 consisted of intraperitoneal injections of mice with 0.5 mg/kg 5D12 every other day for two weeks. High-dose treatment consisted of intraperitoneal injections of mice with 5 mg/kg 5D12 every other day for two weeks. […] The treatment control group consisted of mice injected intraperitoneally with isotype control antibody for two weeks. Four weeks after the termination of the treatments, the grafts were harvested and either fixed in formaldehyde or snap-frozen. Fixed material was used for morphological analyses based on H+E staining, and the snap-frozen material used for additional immunohistochemical analyses.
The effects of methotrexate treatment alone or in combination with low dose (0.5 mg/kg) 5D12 treatment were evaluated. An increasing dosing regimen was chosen, starting with 0.1 mg/kg and increasing the dose by 0.05 mg/kg every week until 0.4 mg/kg was reached. The scheme was combined with the application of the isotype control antibody or with the low dose 5D12 treatment schedule. The isotype control treatment served as a negative control and the low dose 5D12 treatment as a positive control.

`CN(Cc1cnc2nc(N)nc(N)c2n1)c1ccc(C(=O)N[C@@H](CCC(=O)O)C(=O)O)cc1` [Methotrexate] was tested, and the “effects on epidermal thickness (in words)” value was “only minimal effects on epidermal thickness”.
